Results as given in patent US8309556B2, “Use of compounds derived from pyrimidinetrione as acetyl cholinesterase inhibitors, compositions containing said derivatives, and the uses thereof” (priority 2005, dated 2012).

Legend:
[1] = biological target: T1, G119S-mutated recombinant Culex pipiens AChE1 (Culex pipiens, UniProt Q86GC8, G247S); assay: biochemical
T1 construct: made in house; host or cells: Drosophila S2 cells (crude lysate supernatant)
Protocol: (§1) The inhibitory properties of the compounds of the preceding table I are tested with regard to the AChE activity by either using a normal or G119S-mutated recombinant AChE or using extracts of larvae of mosquitoes which are sensitive (carrying normal AChE) or resistant (carrying G119S-mutated AChE) to organophosphorus compounds and carbamates.
(§2) The AChE activity is measured using the method described by Bourguet et al., Pest Biochem. Physiol., 1996, 55, 122-128, and which refers to the spectroscopic method described by Ellman G. L. et al. (Biochem. Pharmacol., 1961, 7, 88-95) using acetylthiocholine as substrate.
(§3) The inhibitory properties of the compounds according to the invention with regard to the activity of a G119S-mutated or normal recombinant Culex pipiens AChE1 are tested according to protocol described by Weill et al., Nature, 2003, 423, 136-137.
(§4) Each compound according to the invention is tested at different concentrations on lysates of Drosophile S2 cells transfected with an empty expression vector or an expression vector expressing normal or mutated AChE1. After expression, the cells are centrifuged for 15 minutes at 14 000 rpm and are subsequently lysed in a 0.25 M phosphate buffer comprising 1% Triton X100.
(§5) 100 μl of supernatant originating from the centrifuging of the cell lysates at 10 000 rpm for 3 minutes are incubated for 15 minutes with 10 μl of each compound according to the invention at various concentrations.
(§6) The effectiveness of the various compounds with regard to the mutated AChE activity, relative to that of the normal AChE, is estimated by the sensitive/insensitive ratio.

[2] = tested on: G119S-mutated recombinant Culex pipiens AChE1; assay: biochemical; settings: IC50 normal AChE1 relative to mutated AChE1, recombinant
Protocol: as §1, §2, §3, §4, §5, §6

[3] = biological target: T2, normal recombinant Culex pipiens AChE1 (Culex pipiens, UniProt Q86GC8); assay: Inhibition of normal recombinant AChE1 (lysates of transfected Drosophile S2 cells, Ellman method); format: biochemical
T2 construct: made in house; host or cells: Drosophila S2 cells (crude lysate supernatant)
Protocol: as §1, §2, §3, §4, §5, §6

[4] = biological target: T3, AChE1 activity of extracts of Culex pipiens larvae resistant to propoxur (G119S-mutated AChE) (Culex pipiens, UniProt Q86GC8, G247S); assay: biochemical
T3 construct: from tissue; host or cells: whole larvae of propoxur-resistant Culex pipiens, Triton X100 homogenate supernatant
Protocol: as §1, §2
(§7) Larvae of Culex pipiens mosquitoes which are sensitive or resistant to propoxur are milled in 400 μl of 0.25M phosphate buffer comprising 1% Triton X100. The homogenates are centrifuged at 10 000 rpm for 3 minutes.
(§8) The effectiveness of the various compounds with regard to the resistant larvae, relative to the sensitive larvae, is estimated by the sensitive/resistant ratio.

[5] = tested on: AChE1 activity of extracts of Culex pipiens larvae resistant to propoxur (G119S-mutated AChE); assay: biochemical; settings: IC50 on larval extracts, sensitive relative to resistant
Protocol: as §1, §2, §7, §8

[6] = biological target: T4, AChE1 activity of extracts of Culex pipiens larvae sensitive to propoxur (normal AChE) (Culex pipiens, UniProt Q86GC8); assay: Inhibition of AChE1 activity in extracts of propoxur-sensitive mosquito larvae; format: biochemical; settings: extracts of propoxur-sensitive larvae, 15 minutes incubation; read-out: IC50, Sensitive larvae
T4 construct: from tissue; host or cells: whole larvae of propoxur-sensitive Culex pipiens, Triton X100 homogenate supernatant
Protocol: as §1, §2, §7, §8

[7] = tested on: larvae of mosquitoes Culex pipiens resistant to propoxur; assay: Insecticidal activity: larval mortality, propoxur-resistant larvae; format: in vivo; settings: for LC50: Culex pipiens, stage-4 larvae, mortality after 24 hours, log-Probit, read-out: LD50, Resistant larvae; for Sensitive/resistant ratio: LD50 larval mortality, sensitive relative to resistant
Protocol: (§9) The insecticidal activity of the compounds according to the invention denoted in table IV below is tested on larvae of mosquitoes Culex pipiens sensitive or resistant to the action of propoxur.
(§10) The larvae resistant or sensitive to propoxur are incubated in 24-well plates, at the rate of 15 stage-4 larvae per well, in 1 ml of tap water comprising different concentrations of compounds ranging from 0.31 to 50 μg/ml.
(§11) Larval mortality is measured after incubating for 24 hours. […] Cahiers ORSTOM, série Entomologie médicale et Parasitologie, 23(2), 117-121; Raymond, M., Prato, G. and Ratsira, D. (1993). PROBIT, CNRS-UMII, Licence L93019. Avenix, 34680 St. Georges d'Orques, France.), the homogeneity of the dose/response being tested. The effectiveness of the different compounds with regard to the resistant larvae, relative to the sensitive larvae, is estimated by the sensitive/resistant ratio.

[8] = tested on: larvae of mosquitoes Culex pipiens sensitive to propoxur; assay: Insecticidal activity: larval mortality, propoxur-sensitive larvae; format: in vivo; settings: stage-4 larvae, mortality after 24 hours, log-Probit, read-out: LD50, Sensitive larvae
Protocol: as §9, §10, §11

Cc1ccc(C=C2C(=O)NC(=O)N(c3ccccc3)C2=O)o1 [(1), 5-[(5-methyl-2-furyl)methylene]-1-phenyl-2,4,6(1H,3H,5H)-pyrimidinetrione]
IC50 [1]: 23 µM | Sensitive/insensitive ratio [2]: 1.47 | IC50 [3]: 34 µM | IC50 [4]: 6.2 µM | Sensitive/resistant ratio [5]: 4.7 | IC50 [6]: 29.4 µM | LC50 [7]: 143 µM | Sensitive/resistant ratio [7]: 2.2 | LC50 [8]: 310 µM

Cc1cccc(N2C(=O)NC(=O)C(=Cc3ccc(C)s3)C2=O)c1 [(2), 1-(3-methylphenyl)-5-[(5-methyl-2-thienyl)methylene]-2,4,6(1H,3H,5H)-pyrimidinetrione]
IC50 [1]: 43 µM | Sensitive/insensitive ratio [2]: 0.90 | IC50 [3]: 39 µM | IC50 [4]: 28 µM | Sensitive/resistant ratio [5]: 15.5 | IC50 [6]: 442 µM | LC50 [7]: 170 µM | Sensitive/resistant ratio [7]: 2.7 | LC50 [8]: 455 µM

COc1cccc(N2C(=O)NC(=O)C(=Cc3ccc(C)s3)C2=O)c1 [(3), 1-(3-methoxyphenyl)-5-[(5-methyl-2-thienyl)methylene]-2,4,6(1H,3H,5H)-pyrimidinetrione]
IC50 [1]: 62 µM | Sensitive/insensitive ratio [2]: 1.65 | IC50 [3]: 102 µM | IC50 [4]: 33 µM | Sensitive/resistant ratio [5]: 3.5 | IC50 [6]: 118 µM | LC50 [7]: 122 µM | Sensitive/resistant ratio [7]: 3.2 | LC50 [8]: 389 µM

Cc1ccc(C=C2C(=O)N(C)C(=O)N(C)C2=O)o1 [(4), 1,3-dimethyl-5-[(5-methyl-2-furyl)methylene]-2,4,6(1H,3H,5H)-pyrimidinetrione]
IC50 [1]: 31 µM | Sensitive/insensitive ratio [2]: 2.40 | IC50 [3]: 73 µM | IC50 [4]: 7.5 µM | Sensitive/resistant ratio [5]: 9.8 | IC50 [6]: 74.3 µM | LC50 [7]: 200 µM | Sensitive/resistant ratio [7]: 2.9 | LC50 [8]: 576 µM

COc1ccc(N2C(=O)NC(=O)C(=Cc3ccc(C)o3)C2=O)cc1 [(5), 1-(4-methoxyphenyl)-5-[(5-methyl-2-furyl)methylene]-2,4,6(1H,3H,5H)-pyrimidinetrione]
IC50 [1]: 22 µM | Sensitive/insensitive ratio [2]: 1.36 | IC50 [3]: 30 µM | IC50 [4]: 81 µM | Sensitive/resistant ratio [5]: 7.3 | IC50 [6]: 592 µM | LC50 [7]: 206 µM | Sensitive/resistant ratio [7]: 1.5 | LC50 [8]: 300 µM

Cc1ccc(C=C2C(=O)NC(=O)N(c3ccc(C(C)C)cc3)C2=O)o1 [(7), 1-(4-isopropylphenyl)-5-[(5-methyl-2-furyl)methylene]-2,4,6(1H,3H,5H)-pyrimidinetrione]
IC50 [1]: 72 µM | Sensitive/insensitive ratio [2]: 1.78 | IC50 [3]: 128 µM | IC50 [4]: 21 µM | Sensitive/resistant ratio [5]: 6.1 | IC50 [6]: 132 µM

O=C1NC(=O)N(c2ccccc2)C(=O)C1=Cc1ccco1 [(9), 5-(2-furylmethylene)-1-phenyl-2,4,6(1H,3H,5H)-pyrimidinetrione]
IC50 [1]: 737 µM | Sensitive/insensitive ratio [2]: 1.89 | IC50 [3]: 1390 µM

CN1C(=O)C(=Cc2ccco2)C(=O)N(C)C1=O [(10), 5-(2-furylmethylene)-1,3-dimethyl-2,4,6(1H,3H,5H)-pyrimidinetrione]
IC50 [1]: 357 µM | Sensitive/insensitive ratio [2]: 3.34 | IC50 [3]: 1190 µM

Cc1ccc(N2C(=O)NC(=O)C(=Cc3ccc(C)o3)C2=O)cc1 [(11), 5-[(5-methyl-2-furyl)methylene]-1-(4-methylphenyl)-2,4,6(1H,3H,5H)-pyrimidinetrione]
IC50 [1]: 3.5 µM | Sensitive/insensitive ratio [2]: 1.27 | IC50 [3]: 4.5 µM | IC50 [4]: 14 µM | Sensitive/resistant ratio [5]: 7.7 | IC50 [6]: 111 µM

COc1cccc(N2C(=O)NC(=O)C(=Cc3ccc(C)o3)C2=O)c1 [(12), 1-(3-methoxyphenyl)-5-[(5-methyl-2-furyl)methylene]-2,4,6(1H,3H,5H)-pyrimidinetrione]
IC50 [1]: 3.5 µM | Sensitive/insensitive ratio [2]: 0.96 | IC50 [3]: 3.4 µM | IC50 [4]: 6 µM | Sensitive/resistant ratio [5]: 8.5 | IC50 [6]: 54 µM

CCOc1ccc(N2C(=O)NC(=O)C(=Cc3ccc(C)o3)C2=O)cc1 [(13), 1-(4-ethoxyphenyl)-5-[(5-methyl-2-furyl)methylene]-2,4,6(1H,3H,5H)-pyrimidinetrione]
IC50 [1]: 2.9 µM | Sensitive/insensitive ratio [2]: 2.40 | IC50 [3]: 7.1 µM | IC50 [4]: 89 µM | Sensitive/resistant ratio [5]: 2.7 | IC50 [6]: 236 µM

Cc1ccc(C=C2C(=O)NC(=O)N(c3ccc(Br)cc3)C2=O)s1 [(14), 1-(4-bromophenyl)-5-[(5-methyl-2-thienyl)methylene]-2,4,6(1H,3H,5H)-pyrimidinetrione]
IC50 [1]: 11.1 µM | Sensitive/insensitive ratio [2]: 0.87 | IC50 [3]: 9.6 µM | IC50 [4]: 142 µM | Sensitive/resistant ratio [5]: 15.0 | IC50 [6]: 2120 µM

Cc1ccc(C=C2C(=O)NC(=O)N(c3ccc(Cl)cc3)C2=O)s1 [(15), 1-(4-chlorophenyl)-5-[(5-methyl-2-thienyl)methylene]-2,4,6(1H,3H,5H)-pyrimidinetrione]
IC50 [1]: 8.7 µM | Sensitive/insensitive ratio [2]: 1.00 | IC50 [3]: 8.7 µM | IC50 [4]: 177 µM | Sensitive/resistant ratio [5]: 6.9 | IC50 [6]: 1220 µM

Cc1ccc(C=C2C(=O)NC(=O)N(c3ccc(F)cc3)C2=O)s1 [(16), 1-(4-fluorophenyl)-5-[(5-methyl-2-thienyl)methylene]-2,4,6(1H,3H,5H)-pyrimidinetrione]
IC50 [1]: 8.6 µM | Sensitive/insensitive ratio [2]: 1.99 | IC50 [3]: 17.1 µM | IC50 [4]: 22 µM | Sensitive/resistant ratio [5]: 22.5 | IC50 [6]: 490 µM

Cc1ccc(C=C2C(=O)NC(=O)N(c3ccc(C)c(C)c3)C2=O)o1 [(17), 1-(3,4-dimethylphenyl)-5-[(5-methyl-2-furyl)methylene]-2,4,6(1H,3H,5H)-pyrimidinetrione]
IC50 [1]: 8.5 µM | Sensitive/insensitive ratio [2]: 1.85 | IC50 [3]: 15.7 µM | IC50 [4]: 35 µM | Sensitive/resistant ratio [5]: 12.2 | IC50 [6]: 424 µM

Cc1ccc(C=C2C(=O)NC(=O)N(Cc3ccco3)C2=O)o1 [(18), 1-(2-furylmethyl)-5-[(5-methyl-2-furyl)methylene]-2,4,6(1H,3H,5H)-pyrimidinetrione]
IC50 [1]: 4.8 µM | Sensitive/insensitive ratio [2]: 2.10 | IC50 [3]: 10.1 µM | IC50 [4]: 37 µM | Sensitive/resistant ratio [5]: 7.1 | IC50 [6]: 260 µM

CCc1ccc(N2C(=O)NC(=O)C(=Cc3ccc(C)o3)C2=O)cc1 [(19), 1-(4-ethylphenyl)-5-[(5-methyl-2-furyl)methylene]-2,4,6(1H,3H,5H)-pyrimidinetrione]
IC50 [1]: 3.4 µM | Sensitive/insensitive ratio [2]: 0.58 | IC50 [3]: 1.9 µM | IC50 [4]: 19 µM | Sensitive/resistant ratio [5]: 16.7 | IC50 [6]: 312 µM

CCCCN1C(=O)NC(=O)C(=Cc2ccc(C)s2)C1=O [(20), 1-butyl-5-[(5-methyl-2-thienyl)methylene]-2,4,6(1H,3H,5H)-pyrimidinetrione]
IC50 [1]: 15.5 µM | Sensitive/insensitive ratio [2]: 0.78 | IC50 [3]: 12.1 µM | IC50 [4]: 152 µM | Sensitive/resistant ratio [5]: 1.0 | IC50 [6]: 153 µM
